Columns and labels:
Type in all cases: cell-based
[1] = system: human gastric cancer cell line SGC-7901; assay: MTT assay, growth inhibition of SGC-7901 cells; conditions: 96-hr culture, read-out: IC50 ± SD, SGC-7901
Experimental: (§1) The inhibition of the compounds of the present invention on growth of a variety of human tumor cell lines is evaluated by MTT assay.
(§2) Method: cells in exponential phase (human gastric cancer cell line SGC-7901, human non-small cell lung cancer cell line A549, human breast cancer cell line BT-549, human prostatic cancer cell line PC-3, human colon cancer cell line HT-29, and human liver cancer cell line SMMC-7721) are seeded at a density of 1.5×10^4 in a 96-well plate. After 24-hr culture, the cells are grown to confluent and the previous culture medium is aspirated. The test includes a control group, and a treatment group. In the control group, a 1640 medium containing 10% fetal bovine serum is replenished; and in the treatment group, a medium containing 100 μM, 50 μM, 10 μM, 1 μM, 0.1 μM, 0.01 μM, 0.001 μM, 0.0001 μM, and 0.00001 μM test compound is replenished. After 96-hr culture, 5 mg/mL MTT is added, and cultured in a CO2 incubator for another 4 hrs. Then, 100 μL of the supernatant is aspirated from the upper portion of the culture medium, and placed in the dark for 10 min after 100 μL DMSO is added. The absorbance (at 570 nm) is measured on a microplate reader (available from Sunrise Co., Ltd.), and the cell viability is calculated from the absorbance. 6 replicate wells are set for each treatment. Cell viability (%)=ΔODtreatment/ΔODcontrol×100.
(§3) The ID50 values of six compounds for inhibiting the growth of numerous human tumor cell lines are calculated by Sigmaplot 10.0 software and are shown in Table 1.

[2] = system: human non-small cell lung cancer cell line A549; assay: MTT assay, growth inhibition of A549 cells; conditions: 96-hr culture, read-out: IC50 ± SD, A549
Experimental: as §1, §2, §3

[3] = system: human colon cancer cell line HT-29; assay: MTT assay, growth inhibition of HT-29 cells; conditions: 96-hr culture, read-out: IC50 ± SD, HT-29
Experimental: as §1, §2, §3

[4] = system: human liver cancer cell line SMMC-7721; assay: MTT assay, growth inhibition of SMMC-7721 cells; conditions: 96-hr culture, read-out: IC50 ± SD, SMMC-7721
Experimental: as §1, §2, §3

[5] = system: human prostatic cancer cell line PC-3; assay: MTT assay, growth inhibition of PC-3 cells; conditions: 96-hr culture, read-out: IC50 ± SD, PC-3
Experimental: as §1, §2, §3

[6] = system: human breast cancer cell line BT-549; assay: MTT assay, growth inhibition of BT-549 cells; conditions: 96-hr culture, read-out: IC50 ± SD, BT-549
Experimental: as §1, §2, §3

| SMILES | IC50 [1] [nM] | IC50 [2] [nM] | IC50 [3] [nM] | IC50 [4] [nM] | IC50 [5] [nM] | IC50 [6] [nM] |
| --- | --- | --- | --- | --- | --- | --- |
| CS(=O)(=O)N1CCN(Cc2cc3c(N4CCOCC4)nc(-c4ccnc5[nH]ccc45)nn3c2)CC1 [Compound I-3] | 2520 ± 60 | 2730 ± 520 | 960 ± 310 | 1720 ± 70 | 780 ± 360 | 1990 ± 70 |
| CS(=O)(=O)N1CCN(Cc2cc3c(N4CCOCC4)nc(-c4cnc(N)nc4)nn3c2)CC1 [Compound I-4] | 830 ± 30 | 620 ± 60 | 1210 ± 40 | 630 ± 110 | 1170 ± 140 | 610 ± 70 |
| CC(C)(O)c1cc2c(N3CCOCC3)nc(-c3cccc4[nH]ncc34)nn2c1 [Compound I-6] | 1010 ± 20 | 1350 ± 280 | 2150 ± 190 | 1840 ± 320 | 1050 ± 640 | 2600 ± 670 |
| CCS(=O)(=O)N1CCN(Cc2cc3c(N4CCOCC4)nc(-c4cnc(N)nc4)nn3c2)CC1 [Compound I-7] | 2390 ± 480 | 1930 ± 230 | 470 ± 90 | 1630 ± 390 | 290 ± 130 | 340 ± 40 |
| CC(=O)N1CCN(Cc2cc3c(N4CCOCC4)nc(-c4cnc(N)nc4)nn3c2)CC1 [Compound I-8] | 1420 ± 230 | 1030 ± 140 | 290 ± 50 | 1280 ± 230 | 140 ± 90 | 110 ± 20 |
| Nc1ncc(-c2nc(N3CCOCC3)c3cc(CN4CCN(C(=O)C5CC5)CC4)cn3n2)cn1 [Compound I-9] | 2510 ± 350 | 3210 ± 380 | 870 ± 160 | 3140 ± 380 | 930 ± 180 | 410 ± 110 |
| C[C@H](O)C(=O)N1CCN(Cc2cc3c(N4CCOCC4)nc(-c4cnc(N)nc4)nn3c2)CC1 [Compound I-10] | 1290 ± 140 | 1480 ± 190 | 310 ± 80 | 1050 ± 240 | 200 ± 110 | 130 ± 30 |
| C[C@@H](O)C(=O)N1CCN(Cc2cc3c(N4CCOCC4)nc(-c4cnc(N)nc4)nn3c2)CC1 [Compound I-11] | 1490 ± 150 | 1500 ± 200 | 850 ± 180 | 2050 ± 280 | 250 ± 120 | 290 ± 130 |

Further lines, results first:

| IC50 [1] [nM] | IC50 [2] [nM] | IC50 [3] [nM] | IC50 [4] [nM] | IC50 [5] [nM] | IC50 [6] [nM] | SMILES |
| --- | --- | --- | --- | --- | --- | --- |
| 2150 ± 140 | 2610 ± 340 | 990 ± 40 | 1690 ± 180 | 510 ± 60 | 1270 ± 80 | CS(=O)(=O)N1CCN(Cc2cc3c(N4CCOCC4)nc(-c4cccc5[nH]ccc45)nn3c2)CC1 [Compound I-1] |
| 1350 ± 280 | 2950 ± 450 | 160 ± 30 | 2530 ± 1490 | 440 ± 80 | 350 ± 150 | CS(=O)(=O)N1CCN(Cc2cc3c(N4CCOCC4)nc(-c4cccc5[nH]ncc45)nn3c2)CC1 [Compound I-2] |
| 3350 ± 460 | 1960 ± 330 | 730 ± 20 | 2150 ± 190 | 220 ± 10 | 590 ± 220 | CS(=O)(=O)N1CCN(C(=O)c2cc3c(N4CCOCC4)nc(-c4cccc5[nH]ncc45)nn3c2)CC1 [Compound I-5] |
| 9370 ± 1430 | 1980 ± 340 | 780 ± 20 | 2450 ± 190 | 220 ± 20 | 590 ± 220 | CS(=O)(=O)N1CCN(Cc2cc3nc(-c4cccc5[nH]ncc45)nc(N4CCOCC4)c3s2)CC1 [GDC-0941, reference compound] |
